Data reported in ChEMBL document CHEMBL1201862, “PubChem BioAssay data set” (2004).
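Test compounds were applied to cells in 96-well plates for 48 hours at 5 doses. The concentration for 50% growth inhibition is given as GI50.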 Active and inactive are the calls of the source. No stated cut-off is given here; in the data, active = GI50 up to about 1.1 µM and inactive = higher.

How the values were obtained:
Assay in all cases: growth of human tumour cells (NCI), 48 h
LOX IMVI = system: LOX IMVI
MDA-MB-435 = system: MDA-MB-435
NCI-H226 = system: NCI-H226
SNB-19 = system: SNB-19
SK-OV-3 = system: SK-OV-3
SN12C = system: SN12C
K562 = system: K562
MDA-N = system: MDA-N
HT-29 = system: HT-29
Hs-578T = system: Hs-578T
SF-268 = system: SF-268
EKVX = system: EKVX
M14 = system: M14
U-251 = system: U-251
COLO 205 = system: COLO 205
HL-60 = system: HL-60
HOP-92 = system: HOP-92
SK-MEL-5 = system: SK-MEL-5
UO-31 = system: UO-31
PC-3 = system: PC-3
T47D = system: T47D
A549 = system: A549
SNB-75 = system: SNB-75
Malme-3M = system: Malme-3M
DU-145 = system: DU-145
KM12 = system: KM12
UACC-62 = system: UACC-62
OVCAR-4 = system: OVCAR-4
OVCAR-8 = system: OVCAR-8
NCI/ADR-RES = system: NCI/ADR-RES
SR = system: SR
BT-549 = system: BT-549
MOLT-4 = system: MOLT-4
NCI-H23 = system: NCI-H23
IGROV-1 = system: IGROV-1
SF-539 = system: SF-539
OVCAR-5 = system: OVCAR-5
SK-MEL-28 = system: SK-MEL-28
HOP-62 = system: HOP-62
HCT-15 = system: HCT-15
NCI-H460 = system: NCI-H460
CCRF-CEM = system: CCRF-CEM
SF-295 = system: SF-295
MCF7 = system: MCF7
SK-MEL-2 = system: SK-MEL-2
786-0 = system: 786-0
UACC-257 = system: UACC-257
ACHN = system: ACHN
SW-620 = system: SW-620
NCI-H522 = system: NCI-H522
MDA-MB-231 = system: MDA-MB-231
OVCAR-3 = system: OVCAR-3
TK-10 = system: TK-10
HCT-116 = system: HCT-116
CAKI-1 = system: CAKI-1
RXF 393 = system: RXF 393
A498 = system: A498
HCC 2998 = system: HCC 2998

Oc1nnnc2c1sc1ncccc12
GI50 (LOX IMVI): > 100 µM (inactive) | GI50 (MDA-MB-435): > 100 µM (inactive) | GI50 (NCI-H226): > 100 µM (inactive) | GI50 (SNB-19): > 100 µM (inactive) | GI50 (SK-OV-3): 85.1 µM (inactive) | GI50 (SN12C): > 100 µM (inactive) | GI50 (K562): > 100 µM (inactive) | GI50 (MDA-N): > 100 µM (inactive) | GI50 (HT-29): > 100 µM (inactive) | GI50 (Hs-578T): > 100 µM (inactive) | GI50 (SF-268): > 100 µM (inactive) | GI50 (EKVX): 63.1 µM (inactive) | GI50 (M14): > 100 µM (inactive) | GI50 (U-251): > 100 µM (inactive) | GI50 (COLO 205): > 100 µM (inactive) | GI50 (HL-60): > 100 µM (inactive) | GI50 (HOP-92): 47.8 µM (inactive) | GI50 (SK-MEL-5): > 100 µM (inactive) | GI50 (UO-31): 84.5 µM (inactive) | GI50 (PC-3): > 100 µM (inactive) | GI50 (T47D): > 100 µM (inactive) | GI50 (A549): > 100 µM (inactive) | GI50 (SNB-75): 25.1 µM (inactive) | GI50 (Malme-3M): > 100 µM (inactive) | GI50 (DU-145): > 100 µM (inactive) | GI50 (KM12): > 100 µM (inactive) | GI50 (UACC-62): > 100 µM (inactive) | GI50 (OVCAR-4): > 100 µM (inactive) | GI50 (OVCAR-8): > 100 µM (inactive) | GI50 (NCI/ADR-RES): > 100 µM (inactive) | GI50 (SR): 5.7 µM (inactive) | GI50 (BT-549): > 100 µM (inactive) | GI50 (MOLT-4): > 100 µM (inactive) | GI50 (NCI-H23): > 100 µM (inactive) | GI50 (IGROV-1): > 100 µM (inactive) | GI50 (SF-539): > 100 µM (inactive) | GI50 (OVCAR-5): > 100 µM (inactive) | GI50 (SK-MEL-28): > 100 µM (inactive) | GI50 (HOP-62): > 100 µM (inactive) | GI50 (HCT-15): > 100 µM | GI50 (NCI-H460): > 100 µM (inactive) | GI50 (CCRF-CEM): > 100 µM (inactive) | GI50 (SF-295): > 100 µM (inactive) | GI50 (MCF7): > 100 µM (inactive) | GI50 (SK-MEL-2): > 100 µM (inactive) | GI50 (786-0): > 100 µM (inactive) | GI50 (UACC-257): > 100 µM (inactive) | GI50 (ACHN): > 100 µM (inactive) | GI50 (SW-620): > 100 µM (inactive) | GI50 (NCI-H522): > 100 µM (inactive) | GI50 (MDA-MB-231): 68.2 µM (inactive) | GI50 (OVCAR-3): > 100 µM (inactive) | GI50 (TK-10): > 100 µM (inactive) | GI50 (HCT-116): > 100 µM (inactive) | GI50 (CAKI-1): > 100 µM (inactive) | GI50 (RXF 393): > 100 µM (inactive) | GI50 (A498): 39.8 µM (inactive) | GI50 (HCC 2998): > 100 µM (inactive)

CCCCCCCCCCCCCCCCOP(=O)(O)OP(=O)(O)OCC1OC(n2cnc3c(N)ncnc32)C(O)C1O (centres undefined)
GI50 (LOX IMVI): > 100 µM (inactive) | GI50 (MDA-MB-435): 56.5 µM (inactive) | GI50 (NCI-H226): 54.6 µM (inactive) | GI50 (SNB-19): 34 µM (inactive) | GI50 (SK-OV-3): 33 µM (inactive) | GI50 (SN12C): 36.3 µM (inactive) | GI50 (K562): 46.8 µM (inactive) | GI50 (MDA-N): 75.9 µM (inactive) | GI50 (HT-29): 39.9 µM (inactive) | GI50 (Hs-578T): 43.8 µM (inactive) | GI50 (SF-268): 73.8 µM (inactive) | GI50 (EKVX): > 100 µM (inactive) | GI50 (M14): 64.9 µM (inactive) | GI50 (U-251): 46 µM (inactive) | GI50 (COLO 205): > 100 µM (inactive) | GI50 (HL-60): 66.7 µM (inactive) | GI50 (HOP-92): 19.1 µM (inactive) | GI50 (SK-MEL-5): > 100 µM (inactive) | GI50 (UO-31): 60.5 µM (inactive) | GI50 (PC-3): 38.2 µM (inactive) | GI50 (T47D): > 100 µM (inactive) | GI50 (A549): > 100 µM (inactive) | GI50 (SNB-75): 24.4 µM (inactive) | GI50 (Malme-3M): 43.9 µM (inactive) | GI50 (DU-145): 69.3 µM (inactive) | GI50 (KM12): > 100 µM (inactive) | GI50 (UACC-62): 58.7 µM (inactive) | GI50 (OVCAR-4): > 100 µM (inactive) | GI50 (OVCAR-8): 39.8 µM (inactive) | GI50 (NCI/ADR-RES): 78.9 µM (inactive) | GI50 (SR): 31.8 µM (inactive) | GI50 (BT-549): 18.7 µM (inactive) | GI50 (MOLT-4): 23.5 µM (inactive) | GI50 (NCI-H23): 87.1 µM (inactive) | GI50 (IGROV-1): 66.8 µM (inactive) | GI50 (OVCAR-5): 11.5 µM (inactive) | GI50 (SK-MEL-28): 24.5 µM (inactive) | GI50 (HOP-62): 30.5 µM (inactive) | GI50 (HCT-15): > 100 µM | GI50 (NCI-H460): 36.1 µM (inactive) | GI50 (CCRF-CEM): 30.5 µM (inactive) | GI50 (MCF7): 56 µM (inactive) | GI50 (SK-MEL-2): 49.8 µM (inactive) | GI50 (786-0): 80.5 µM (inactive) | GI50 (UACC-257): > 100 µM (inactive) | GI50 (ACHN): > 100 µM (inactive) | GI50 (SW-620): > 100 µM (inactive) | GI50 (NCI-H522): 19.9 µM (inactive) | GI50 (MDA-MB-231): > 100 µM (inactive) | GI50 (OVCAR-3): > 100 µM (inactive) | GI50 (TK-10): > 100 µM (inactive) | GI50 (HCT-116): 45.5 µM (inactive) | GI50 (CAKI-1): 99.3 µM (inactive) | GI50 (RXF 393): 98.4 µM (inactive) | GI50 (A498): > 100 µM (inactive) | GI50 (HCC 2998): 52.1 µM (inactive)
